Measured values: US12655116B2, “Substituted isophthalic acid diamides” (Bayer Aktiengesellschaft, priority 2020, dated 2026)

Legend:
ABUTH [1] = experiment: Pre-emergence herbicidal action against ABUTH; assay type: in vivo, Abutilon theophrasti; conditions: for Pre-emergence action against ABUTH (herbicidal activity): 80 g/ha, scored visually after 3 weeks vs untreated controls (100% = plants have died, 0% = like control plants); for Pre-emergence action against ABUTH (herbicidal activity in percent): dosage 20 g/ha, scored visually after 3 weeks vs untreated controls, 100% = plants have died, 0% = like control plants
Method in brief: (§1)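 Visual rating at 3 weeks vs untreated pots; 0–100% scale, 100% = plants died. Treatment: aqueous WP/EC spray onto covering soil, 600–800 l/ha, 0.2% wetter, seeds in sandy loam.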

ALOMY [2] = experiment: Pre-emergence herbicidal action against ALOMY; assay type: in vivo, Alopecurus myosuroides; conditions: 80 g/ha, pre-emergence, scored visually after 3 weeks vs untreated controls (100% = plants have died, 0% = like control plants)
Method in brief: as §1

AMARE [3] = experiment: Pre-emergence herbicidal action against AMARE; assay type: in vivo, Amaranthus retroflexus
Method in brief: as §1

AVEFA [4] = experiment: Pre-emergence herbicidal action against AVEFA; assay type: in vivo, Avena fatua; conditions: 80 g/ha, pre-emergence
Method in brief: as §1

ECHCG [5] = experiment: Pre-emergence herbicidal action against ECHCG; assay type: in vivo, Echinochloa crus-galli
Method in brief: as §1

MATIN [6] = experiment: Pre-emergence herbicidal action against MATIN; assay type: in vivo, Matricaria inodora
Method in brief: as §1

SETVI [7] = experiment: Pre-emergence herbicidal action against SETVI; assay type: in vivo, Setaria viridis; conditions: dosage 80 g/ha
Method in brief: as §1

VERPE [8] = experiment: Pre-emergence herbicidal action against VERPE; assay type: in vivo, Veronica persica
Method in brief: as §1

VIOTR [9] = experiment: Pre-emergence herbicidal action against VIOTR; assay type: in vivo, Viola tricolor
Method in brief: as §1

ALOMY [10] = experiment: Post-emergence herbicidal action against ALOMY; assay type: in vivo, Alopecurus myosuroides; conditions: dosage 20 g/ha, visual assessment about 3 weeks after treatment vs untreated controls
Method in brief: (§2)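 Greenhouse pot plants in sandy loam were sprayed at the one-leaf stage, 2 to 3 weeks after sowing, with WP or EC formulations as aqueous suspension or emulsion (600 to 800 l/ha water, 0.2% wetting agent). About 3 weeks later, damage was scored visually against untreated controls as % action (100% = dead, 0% = like control).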

AMARE [11] = experiment: Post-emergence herbicidal action against AMARE; assay type: in vivo, Amaranthus retroflexus; conditions: 20 g/ha, visual assessment about 3 weeks after treatment, 100% = plants have died, 0% = like control plants
Method in brief: as §2

AVEFA [12] = experiment: Post-emergence herbicidal action against AVEFA; assay type: in vivo, Avena fatua; conditions: 20 g/ha, visual assessment about 3 weeks after treatment, 100% = plants have died, 0% = like control plants
Procedure: Seeds of monocotyledonous and dicotyledonous weed and crop plants are laid out in sandy loam soil in wood-fiber pots, covered with soil and cultivated in a greenhouse under good growth conditions. 2 to 3 weeks after sowing, the test plants are treated at the one-leaf stage. The compounds of the invention, formulated in the form of wettable powders (WP) or as emulsion concentrates (EC), are then sprayed onto the green parts of the plants in the form of an aqueous suspension or emulsion at a water application rate equivalent to 600 to 800 l/ha, with addition of 0.2% wetting agent. After the test plants have been left to stand in the greenhouse under optimal growth conditions for about 3 weeks, the action of the preparations is assessed visually in comparison to untreated controls (herbicidal action in percent (%): 100% activity=the plants have died, 0% activity=like control plants). […] The tables below illustrate, in an illustrative manner, the post-emergence herbicidal action of the compounds of the invention, the herbicidal activity being stated in percent.

ECHCG [13] = experiment: Post-emergence herbicidal action against ECHCG; assay type: in vivo, Echinochloa crus-galli
Method in brief: as §2

MATIN [14] = experiment: Post-emergence herbicidal action against MATIN; assay type: in vivo, Matricaria inodora
Method in brief: as §2

PHBPU = experiment: Post-emergence herbicidal action against PHBPU; assay type: in vivo, Pharbitis purpurea
Method in brief: as §2

SETVI [15] = experiment: Post-emergence herbicidal action against SETVI; assay type: in vivo, Setaria viridis
Method in brief: as §2

VERPE [16] = experiment: Post-emergence herbicidal action against VERPE; assay type: in vivo, Veronica persica
Method in brief: as §2

VIOTR [17] = experiment: Post-emergence herbicidal action against VIOTR; assay type: in vivo, Viola tricolor
Method in brief: as §2

ABUTH [18] = experiment: Post-emergence herbicidal action against ABUTH; assay type: in vivo, Abutilon theophrasti; conditions: dosage 20 g/ha, visual assessment about 3 weeks after treatment vs untreated controls
Method in brief: as §2

[19] = 20 g/ha, scored visually after 3 weeks vs untreated controls, 100% = plants have died, 0% = like control plants
[20] = 80 g/ha, scored visually after 3 weeks vs untreated controls (100% = plants have died, 0% = like control plants)

SMILES	Pre-emergence action against ABUTH (herbicidal activity) (ABUTH [1]) [%]	Pre-emergence action against ABUTH (herbicidal activity in percent) (ABUTH [1]) [%]	Pre-emergence action against ALOMY (herbicidal activity) (ALOMY [2]) [%]	Pre-emergence action against AMARE in % (AMARE [3]; [19]) [%]	Pre-emergence action against AMARE in % (AMARE [3]; [20]) [%]	Pre-emergence action against ECHCG in % (ECHCG [5]; 80 g/ha) [%]	Pre-emergence action against MATIN in % (MATIN [6]; dosage 20 g/ha) [%]	Pre-emergence action against MATIN in % (MATIN [6]; dosage 80 g/ha) [%]	Pre-emergence action against SETVI in % (SETVI [7]) [%]	Pre-emergence action against VERPE in % (VERPE [8]; dosage 80 g/ha) [%]	Pre-emergence action against VIOTR in % (VIOTR [9]; dosage 80 g/ha) [%]	Post-emergence action against ALOMY in % (ALOMY [10]) [%]	Post-emergence action at 20 g/ha against AMARE in % (AMARE [11]) [%]	Post-emergence action at 20 g/ha against AVEFA in % (AVEFA [12]) [%]	Post-emergence action against ECHCG in % (ECHCG [13]; dosage 20 g/ha) [%]	Post-emergence action against MATIN in % (MATIN [14]; dosage 20 g/ha) [%]	Post-emergence action against PHBPU in % (PHBPU; dosage 20 g/ha) [%]	Post-emergence action against SETVI in % (SETVI [15]; dosage 20 g/ha) [%]	Post-emergence action against VERPE in % (VERPE [16]; 20 g/ha) [%]	Post-emergence action against VIOTR in % (VIOTR [17]; 5 g/ha) [%]	also measured
CSc1c(C(=O)Nc2nnnn2C)ccc(C(F)(F)F)c1C(=O)NCC1CC1 [Example 1-84]	100	100	100	100	100	100	100	100	100	100	100	100	100	80	100	90	90	100	90	100	Pre-emergence action against AVEFA in % (AVEFA [4]): 100%; Pre-emergence action against VERPE in % (VERPE [8]; dosage 20 g/ha): 80%; Post-emergence action against PHBPU in % (PHBPU; dosage 5 g/ha): 90%; Post-emergence action against SETVI in % (SETVI [15]; dosage 5 g/ha): 100%; Post-emergence action against VIOTR in % (VIOTR [17]; 20 g/ha): 100%
CSc1c(C(=O)Nc2nnnn2C)ccc(C(F)(F)F)c1C(=O)NC(C)C1CC1 (centres unmarked) [Example 1-352]	100	100	80	100	100	100	100	100	100	100	100	80	100	80	100	90	90	100	90	100	Pre-emergence action against AVEFA in % (AVEFA [4]): 80%; Pre-emergence action against VERPE in % (VERPE [8]; dosage 20 g/ha): 90%; Pre-emergence action against VIOTR in % (VIOTR [9]; dosage 20 g/ha): 100%; Post-emergence action against ABUTH in % (ABUTH [18]): 100%; Post-emergence action against ECHCG in % (ECHCG [13]; dosage 5 g/ha): 100%; Post-emergence action against MATIN in % (MATIN [14]; dosage 5 g/ha): 80%; Post-emergence action against SETVI in % (SETVI [15]; dosage 5 g/ha): 80%; Post-emergence action against VIOTR in % (VIOTR [17]; 20 g/ha): 100%
CSc1c(C(=O)Nc2nnnn2C)ccc(C(F)F)c1C(=O)NC(C)C1CC1 (centres unmarked) [Example 1-353]	100	100	90	100	100	100	100	100	100	100	100	80	100	80	100	90	90	100	90	100	Pre-emergence action against ECHCG in % (ECHCG [5]; 20 g/ha): 90%; Pre-emergence action against VIOTR in % (VIOTR [9]; dosage 20 g/ha): 100%; Post-emergence action against ABUTH in % (ABUTH [18]): 80%; Post-emergence action against ECHCG in % (ECHCG [13]; dosage 5 g/ha): 100%; Post-emergence action against MATIN in % (MATIN [14]; dosage 5 g/ha): 80%; Post-emergence action against VERPE in % (VERPE [16]; 5 g/ha): 80%; Post-emergence action against VIOTR in % (VIOTR [17]; 20 g/ha): 100%
